According to patent US12410189B2, “Polymorphs and solid forms of (S)-2-2((2-((S)-4-(difluoromethyl)-2-oxooxazolidin-3-yl)-5,6-dihydrobenzo[f]imidazo[1,2-d][1,4]oxazepin-9-yl)amino)propanamide, and methods of production” (Genentech, Inc., priority 2017, dated 2025):
Values after ≈ are worked out from the molar mass of the structure shown. “Also recorded” adds a separate entry of the source. Values belong to the compound of their own block, whether it stands above or below them.

Assays:
[1] = target: PI3K (Homo sapiens, UniProt P42336); conditions: WO 2017/001645, US 2017/0015678, AACR 2017; cited from earlier work
[2] = Slurry bridging of hydrate-anhydrate mixtures in ethanol-water mixtures, water activity; format: physicochemical; conditions: RT
Experimental: Deionized (DI) Water-ethanol (absolute alcohol) mixtures of different compositions ranging from 0-100% water were prepared and their water activities were measured using a water activity meter. Slurry experiments were set up at RT wherein 1:1 mixtures of trihydrate and anhydrous forms of GDC-0077 (40 mg total) were added to these solvent mixtures (1.5 mL liquid) and agitated at RT over 4 days. After 4 days, the samples were aliquoted and centrifuged. The solids were analyzed by XRPD and the supernatant was analyzed for water activity. 1:1 mixture of Forms A and D was slurried in in-propanol overnight at RT. The slurry was centrifuged and the solid form was analyzed by XRPD. An Aqualab 4TEV (Decagon Devices, WA) was used as the water activity meter in the capacitance sensor mode to acquire data at 25±0.2° C. for solvent mixtures and slurry supernatants. Instrument was calibrated using vendor provided standards (saturated salt solutions) over the aw range of 0.25-1. All aw values are obtained after stabilization of three consecutive reads.

[3] = Slurry bridging of Forms A and D (1:1) in n-propanol; format: physicochemical
Experimental: Based on Burger and Ramberger's “Heat of Fusion Rule” of polymorphism, two polymorphs are considered to be monotropic if the one with the higher melting point has a greater heat of fusion as well (Burger and Ramberger, Mikrochimica Acta (1979), 256). […] To confirm this further, a slurry bridging experiment was conducted at RT in n-propanol, which had previously yielded Form D from the crude API.
Deionized (DI) Water-ethanol (absolute alcohol) mixtures of different compositions ranging from 0-100% water were prepared and their water activities were measured using a water activity meter. Slurry experiments were set up at RT wherein 1:1 mixtures of trihydrate and anhydrous forms of GDC-0077 (40 mg total) were added to these solvent mixtures (1.5 mL liquid) and agitated at RT over 4 days. After 4 days, the samples were aliquoted and centrifuged. The solids were analyzed by XRPD and the supernatant was analyzed for water activity. 1:1 mixture of Forms A and D was slurried in in-propanol overnight at RT. The slurry was centrifuged and the solid form was analyzed by XRPD.

[4] = Isothermal TGA dehydration of Form B; format: physicochemical; conditions: TGA held at 60° C.
Experimental: The desolvation behavior of Form B as well its ability to rehydrate was further characterized. […] As evident from the data, the hydrate dehydrates readily, losing almost all of its lattice water (12%) at 60° C. and rehydrates after 4 hours of equilibration which indicates easy passage of water in and out of the lattice. The water sorption desorption behavior of trihydrate Form B GDC-0077 at 25° C. is depicted in FIG. 10A. The dynamic vapor sorption experiment provides information about the dehydration behavior of Form B. Dehydration of Form B commences rapidly below 40% RH (desorption curve) and is complete by the time the sample is exposed to 0% RH. Although there is a hysteresis showing equilibrium lag, the anhydrous product rehydrates beyond 40% RH, equally readily. […] The trihydrate dehydrates in 2-3 steps whereas the anhydrate to hydrate formation occurs majorly in one step at >40% RH (25° C.).
Isothermal experiments: In a thermogravimetric analyzer (Q500 TGA, TA instruments), 3-4 mg of GDC-0077 samples were heated in an open aluminum pan from RT to 60° C. at a heating rate of 10° C./min held isothermally at 60° C. overnight. Samples were then either analyzed by XRPD or left to equilibrate at RT for 4 hours in the sample pan and then rerun isothermally at 60° C. using the same experimental parameters as mentioned above.

[5] = Water sorption analysis (dynamic vapor sorption); format: physicochemical
Experimental: About 5-6 mg of powder sample was placed in the sample pan of an automated water sorption analyzer (Q5000SA, TA instruments, New Castle, DE) at 25° C. and a nitrogen flow rate of 200 mL/min. The sample was initially “dried” at 0% RH for a total of 600 minutes (at 60 followed by 25° C.), following which it was subjected to progressive increase in RH from 0-90%, in increments of 10% with a dwell time of 240 minutes at every RH with a dm/dt window of 0.001% for 30 minutes. This was followed by a progressive decrease in RH in decrements of 10% back to 0% RH, using the same protocol. For hydrate samples, the process was reversed where the starting RH was maintained at 90%, followed by a progressive step-wise lowering to 0%, followed by similar step wise increase back to 90%. This was done to ensure that the water of hydration is retained at the start of the experiment.

[6] = Particle size distribution analysis (PSD); format: physicochemical
Experimental: Particle size analysis was performed using a Malvern Mastersizer 2000 instrument equipped with a Hydros 2000SM wet dispersion attachment (Malvern Instruments Ltd., Malvern, UK). ˜30 mg of API was weighed into a vial and 1 mL of 0.1% Span 85 in heptane was added. The vial was sonicated for 5 seconds, about 0.3 mL was added to the sampler at a stir speed of 1500 rpm, and a PSD was performed at an obscuration of 10-20%. The sample was then sonicated for 10 more seconds (a total of 15 seconds), about 0.3 mL was added to the sampler, a PLM image was acquired, and PSD was performed. The same sample was then sonicated for another 15 seconds (a total of 30 seconds), about 0.3 mL was added, a PLM photo was taken and PSD was performed. From the sonication study, an appropriate sonication period was chosen. The PLM images and PSDs were used to determine how much sonication the sample needed to disperse clumps but prevent or minimize crystal fracturing. Three more samples, of ˜10 mg, were weighed into vials and 1 mL of 0.1% Span 85 in heptane was added. The samples were sonicated for the sonication period determined in the sonication study. The final PSD analysis was performed in triplicate using the predetermined sonication period. The instrument was rinsed twice with isopropyl alcohol (IPA) and once with heptane before being filled with 0.1% Span 85 in heptane for each sample. After the last sample had run, the instrument was rinsed with IPA once.

[7] = Surface area analysis (BET); format: physicochemical; conditions: for BET Surface Area: Krypton gas adsorption
Experimental: Surface area measurement was conducted using a Micromeritics ASAP 2460 with a Micromeritics Smart VacPrep attachment (Micromeritics Instrument Corp., GA). A sample of 500 mg-1 g was weighed into an empty ASAP 2460 tube and placed on the Smart VacPrep, degassed for 24 hours under ambient conditions and then exposed to Krypton gas adsorption at […] and 100 mm Hg hold pressure. An 11-point measurement was made in the relative pressure range of 0.050-0.300 and the data was analyzed using MicroActive software provided by the vendor.

[8] = Jet milling of Form A, physical form after size reduction; format: physicochemical; conditions: jet mill
Experimental: (§1) Milling of Form A may optimize certain PK properties. A scaled up Form A lot was milled and also placed on stability studies (40° C./75% RH, 25° C./60% RH, open vials). Three more lots were also milled which behaved similarly upon milling. A milled representative lot was characterized and the physical form was determined. This lot was slurried in 100% ethanol to obtain Form A and milled using a jet mill at for 3.5 hrs with 60 psi pressure. […] The particle size analysis (PSD) was determined to be D10=0.7 μm, D50=2.7 μm, D90=6.7 μm. Post milling, a portion of the API (Active Pharmaceutical Ingredient, i.e. GDC-0077) batch was placed on stability at 40° C./75% RH and 25° C./60% RH in open vials. Solid-state data was collected at 4 and 8 weeks to evaluate effect of temperature and humidity on the physical form. The milled and stability samples were characterized by XRPD, PLM, DSC, TGA, Water sorption analysis and surface area analysis. DSC runs were performed in the modulated mode using non-hermetically crimped pans, a heating rate of 1° C./min from 0-175° C., modulation amplitude of ±1° C. and a period of 60 seconds.

[9] = Slurry of Form A in DI water, anhydrate to hydrate conversion by XRPD; format: physicochemical
Experimental: Conversion of anhydrous Form A to Form B was investigated. […] To check for hydrate formation, Form A was slurried in DI water for 4 days (RT). Form conversion (anhydrate to hydrate) was initiated at 12 hours and was complete within 4 days, as detected by XRPD with reference to Form B. Anhydrate (Form A) to hydrate (Form B) conversion was measured upon slurrying in DI water for 4 days. […] Form conversion is complete by 96 hrs.

[10] = Water solubility of Form A; format: physicochemical; conditions: pH 7.06, water, room temperature, pH of 7.06
Excerpt: The trihydrate form was obtained by slurrying Form A in DI water over 4 days (RT), centrifuging the slurry to remove supernatant and then drying the solid at RT for a few hours.

[11] = Stability study of milled Form A in open vials; format: physicochemical; conditions: up to 8 weeks
Experimental: as §1

[12] = after jet milling 3.5 hrs, 60 psi
[13] = listed as printed without sonication time

PI3K, sequence (P42336 whole entry): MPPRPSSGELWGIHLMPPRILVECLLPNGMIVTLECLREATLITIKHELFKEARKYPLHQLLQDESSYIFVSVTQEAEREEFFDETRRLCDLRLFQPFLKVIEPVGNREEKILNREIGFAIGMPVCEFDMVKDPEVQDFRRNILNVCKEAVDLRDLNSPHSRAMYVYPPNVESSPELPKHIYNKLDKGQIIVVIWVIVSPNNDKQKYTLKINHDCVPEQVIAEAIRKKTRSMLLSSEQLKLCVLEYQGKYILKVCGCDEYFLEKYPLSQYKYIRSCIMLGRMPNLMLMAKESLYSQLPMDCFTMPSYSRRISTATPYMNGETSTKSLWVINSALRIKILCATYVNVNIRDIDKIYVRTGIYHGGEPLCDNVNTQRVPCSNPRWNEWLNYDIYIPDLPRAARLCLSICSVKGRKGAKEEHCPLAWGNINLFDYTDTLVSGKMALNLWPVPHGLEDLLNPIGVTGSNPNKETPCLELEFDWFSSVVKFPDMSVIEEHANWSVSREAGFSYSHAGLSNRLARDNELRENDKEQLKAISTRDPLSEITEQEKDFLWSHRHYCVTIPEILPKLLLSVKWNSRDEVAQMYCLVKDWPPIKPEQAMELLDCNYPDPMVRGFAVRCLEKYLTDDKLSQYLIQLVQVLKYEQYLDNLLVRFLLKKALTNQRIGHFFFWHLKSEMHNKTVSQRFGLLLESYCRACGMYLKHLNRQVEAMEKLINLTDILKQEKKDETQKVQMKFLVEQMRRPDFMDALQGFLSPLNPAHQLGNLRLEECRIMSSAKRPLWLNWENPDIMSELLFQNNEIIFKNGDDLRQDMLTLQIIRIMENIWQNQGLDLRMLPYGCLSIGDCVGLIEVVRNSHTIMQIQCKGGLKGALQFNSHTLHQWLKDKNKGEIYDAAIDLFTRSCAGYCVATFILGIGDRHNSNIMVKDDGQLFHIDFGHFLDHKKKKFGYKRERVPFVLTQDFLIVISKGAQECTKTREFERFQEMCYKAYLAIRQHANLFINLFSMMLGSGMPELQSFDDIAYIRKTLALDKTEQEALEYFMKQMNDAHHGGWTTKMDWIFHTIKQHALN
PI3K, sequence (P27986 whole entry partner): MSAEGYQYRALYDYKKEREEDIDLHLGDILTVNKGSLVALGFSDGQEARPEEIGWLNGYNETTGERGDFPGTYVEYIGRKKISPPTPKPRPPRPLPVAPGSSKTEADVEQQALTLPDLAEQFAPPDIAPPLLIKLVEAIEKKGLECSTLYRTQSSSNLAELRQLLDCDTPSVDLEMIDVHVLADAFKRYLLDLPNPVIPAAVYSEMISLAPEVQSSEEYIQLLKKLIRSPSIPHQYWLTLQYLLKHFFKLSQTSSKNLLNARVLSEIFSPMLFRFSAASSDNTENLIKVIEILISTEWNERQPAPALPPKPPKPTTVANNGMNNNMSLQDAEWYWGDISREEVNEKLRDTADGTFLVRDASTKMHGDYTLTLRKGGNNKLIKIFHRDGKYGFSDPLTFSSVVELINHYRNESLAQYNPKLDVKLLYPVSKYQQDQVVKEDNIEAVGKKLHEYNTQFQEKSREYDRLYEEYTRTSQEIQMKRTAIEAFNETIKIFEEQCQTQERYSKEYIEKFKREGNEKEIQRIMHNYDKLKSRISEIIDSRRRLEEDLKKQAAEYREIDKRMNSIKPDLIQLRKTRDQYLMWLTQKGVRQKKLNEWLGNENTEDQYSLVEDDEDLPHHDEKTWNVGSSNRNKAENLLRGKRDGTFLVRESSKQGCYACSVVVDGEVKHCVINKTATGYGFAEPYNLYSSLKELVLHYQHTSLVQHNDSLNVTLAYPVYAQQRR

aw of anhydrate-hydrate equilibrium [2]: 0.82-0.86
equilibrium RH (relative humidity) zone for the two forms [2]: 82-86%
water content equivalent to equilibrium RH zone [2]: 65-83 % w/w
SMILES: C[C@H](Nc1ccc2c(c1)OCCn1cc(N3C(=O)OC[C@H]3C(F)F)nc1-2)C(N)=O [GDC-0077, (S)-2-((2-((S)-4-(difluoromethyl)-2-oxooxazolidin-3-yl)-5,6-dihydrobenzo[f]imidazo[1,2-d][1,4]oxazepin-9-yl)amino) propanamide]
PI3K activity [1]: potent

form conversion in slurry ([3]; Forms A and D 1:1, n-propanol, RT, overnight): converts to Form A
SMILES: C[C@H](Nc1ccc2c(c1)OCCn1cc(N3C(=O)OC[C@H]3C(F)F)nc1-2)C(N)=O [Form D, (S)-2-((2-((S)-4-(difluoromethyl)-2-oxooxazolidin-3-yl)-5,6-dihydrobenzo[f]imidazo[1,2-d][1,4]oxazepin-9-yl)amino) propanamide]

lattice water lost on isothermal dehydration [4]: 12%
RH below which dehydration commences (desorption curve) ([5]; 25° C.): below 40 % RH
RH range where intermediate dehydrated form is evident ([5]; 25° C., desorption): 20-50 % RH
RH beyond which the anhydrous product rehydrates ([5]; 25° C., resorption): > 40 % RH
SMILES: C[C@H](Nc1ccc2c(c1)OCCn1cc(N3C(=O)OC[C@H]3C(F)F)nc1-2)C(N)=O [Form B, (S)-2-((2-((S)-4-(difluoromethyl)-2-oxooxazolidin-3-yl)-5,6-dihydrobenzo[f]imidazo[1,2-d][1,4]oxazepin-9-yl)amino) propanamide]

increase in moisture uptake compared to the unmilled material ([5]; water sorption profile): 1 % w/w
D10 [6, 12]: 0.7 μm
D50 [6, 12]: 2.7 μm
D90 [6, 12]: 6.7 μm
BET Surface Area [7]: 6.68 ± 0.16 m2/g
BET Surface Area ([7]; listed as milled lot): 6.68 m2/g
surface area from sauter mean diameter (D3,2) ([7]; calculated from particle size): 3.42 m2/g
increase in surface area upon milling ([7]; milled versus unmilled): 10 ×
SMILES: C[C@H](Nc1ccc2c(c1)OCCn1cc(N3C(=O)OC[C@H]3C(F)F)nc1-2)C(N)=O [Jet Milled]

weight gain (water sorption) ([5]; up to 90% RH): 0.25%
BET Surface Area [7]: 0.78 ± 0.03 m2/g
BET Surface Area ([7]; listed as unmilled material): 0.78 m2/g
SMILES: C[C@H](Nc1ccc2c(c1)OCCn1cc(N3C(=O)OC[C@H]3C(F)F)nc1-2)C(N)=O [Unmilled]

physical form upon milling [8]: remains stable
moisture uptake (water sorption) ([5]; 25° C., up to 90% RH): 0.25 % w/w
moisture uptake (water sorption) ([5]; 25° C., up to 90% RH, listed as Form I): < 0.3 % w/w
D10 ([6]; 5 sec sonication): 3.24 μm
D50 ([6]; 5 sec sonication): 14.87 μm
D90 ([6]; 5 sec sonication): 40.92 μm
D[4.3] ([6]; 5 sec sonication): 19.09 μm
D10 ([6]; 15 sec sonication): 2.70 μm
D50 ([6]; 15 sec sonication): 10.93 μm
D90 ([6]; 15 sec sonication): 27.59 μm
D[4.3] ([6]; 15 sec sonication): 13.44 μm
D10 [6, 13]: 4.76 μm
D50 [6, 13]: 27.73 μm
D90 [6, 13]: 208.16 μm
D[4.3] [6, 13]: 74.60 μm
time by which form conversion is complete [9]: ≤ 96 h
time at which anhydrate to hydrate conversion was initiated ([9]; RT): 12 h
time to complete anhydrate to hydrate conversion ([9]; RT): ≤ 4 days
time within which anhydrate to hydrate conversion starts ([9]; hydrate marker peak by XRPD): ≤ 12 h
solubility [10]: 30.8 µg/mL (≈ 75.6 µM)
physical form stability ([11]; 25° C./60% RH): remains stable
physical form stability ([11]; 40° C./75% RH): remains stable
SMILES: C[C@H](Nc1ccc2c(c1)OCCn1cc(N3C(=O)OC[C@H]3C(F)F)nc1-2)C(N)=O [Form A, (S)-2-((2-((S)-4-(difluoromethyl)-2-oxooxazolidin-3-yl)-5,6-dihydrobenzo[f]imidazo[1,2-d][1,4]oxazepin-9-yl)amino) propanamide]
relative thermodynamic stability of the forms ([3]; Form A versus Form D, RT to 214° C.): thermodynamically stable form; also recorded: more stable form
